Measured values reported in the supplement of paper PMC10307832.

Columns and labels:
Experiment in all cases: relative viability (nuclei count vs DMSO), 5 days (fraction); higher = more cells survive
Imatinib + Pictilisib = compound: Cc1ccc(NC(=O)c2ccc(CN3CCN(C)CC3)cc2)cc1Nc1nccc(-c2cccnc2)n1 [Imatinib] + CS(=O)(=O)N1CCN(Cc2cc3nc(-c4cccc5[nH]ncc45)nc(N4CCOCC4)c3s2)CC1 [Pictilisib] (partner 1 µM)
Summary of the method: (§1)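 Relative viability equals treated-well nuclei counts divided by vehicle-well nuclei counts. Counts came from 4× images of lung cancer cell lines grown in 1536-well plates for 5 days after pin-tool dosing on the day after seeding. Dosing used one drug alone or a fixed anchor-drug dose plus five library-drug doses (not always all listed) in √10 steps, and values are medians of duplicate plates.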

Imatinib + Bortezomib = compound: Cc1ccc(NC(=O)c2ccc(CN3CCN(C)CC3)cc2)cc1Nc1nccc(-c2cccnc2)n1 [Imatinib] + CC(C)C[C@H](NC(=O)[C@H](Cc1ccccc1)NC(=O)c1cnccn1)B(O)O [Bortezomib] (partner 0.002 µM)
Summary of the method: as §1

Imatinib + Lapatinib = compound: Cc1ccc(NC(=O)c2ccc(CN3CCN(C)CC3)cc2)cc1Nc1nccc(-c2cccnc2)n1 [Imatinib] + CS(=O)(=O)CCNCc1ccc(-c2ccc3ncnc(Nc4ccc(OCc5cccc(F)c5)c(Cl)c4)c3c2)o1 [Lapatinib] (partner 2 µM)
Summary of the method: as §1

Imatinib + Pemetrexed = compound: Cc1ccc(NC(=O)c2ccc(CN3CCN(C)CC3)cc2)cc1Nc1nccc(-c2cccnc2)n1 [Imatinib] + Nc1nc2[nH]cc(CCc3ccc(C(=O)N[C@@H](CCC(=O)O)C(=O)O)cc3)c2c(=O)[nH]1 [Pemetrexed] (partner 0.2 µM)
Summary of the method: as §1

| Cell Line | relative viability (Imatinib + Pictilisib; first compound 0.02 µM) | relative viability (Imatinib + Pictilisib; first compound 0.06325 µM) | relative viability (Imatinib + Pictilisib; first compound 0.2 µM) | relative viability (Imatinib + Pictilisib; first compound 0.6325 µM) | relative viability (Imatinib + Pictilisib; first compound 2 µM) | relative viability (Imatinib + Bortezomib; first compound 0.02 µM) | relative viability (Imatinib + Bortezomib; first compound 0.06325 µM) | relative viability (Imatinib + Bortezomib; first compound 0.2 µM) | relative viability (Imatinib + Bortezomib; first compound 0.6325 µM) | relative viability (Imatinib + Bortezomib; first compound 2 µM) | relative viability (Imatinib + Lapatinib; first compound 0.02 µM) | relative viability (Imatinib + Lapatinib; first compound 0.06325 µM) | relative viability (Imatinib + Lapatinib; first compound 0.2 µM) | relative viability (Imatinib + Lapatinib; first compound 0.6325 µM) | relative viability (Imatinib + Lapatinib; first compound 2 µM) | relative viability (Imatinib + Pemetrexed; first compound 0.02 µM) | relative viability (Imatinib + Pemetrexed; first compound 0.06325 µM) | relative viability (Imatinib + Pemetrexed; first compound 0.2 µM) | relative viability (Imatinib + Pemetrexed; first compound 0.6325 µM) | relative viability (Imatinib + Pemetrexed; first compound 2 µM) |
| --- | --- | --- | --- | --- | --- | --- | --- | --- | --- | --- | --- | --- | --- | --- | --- | --- | --- | --- | --- | --- |
| NCI-H1650 | 0.638 | 0.338 | 0.589 | 0.574 | 0.661 | 0.211 | 0.204 | 0.22 | 0.22 | 0.233 | 0.797 | 0.489 | 0.845 | 0.816 | 0.886 | 0.414 | 0.405 | 0.362 | 0.335 | 0.416 |
| UMC-11 | 0.81 | 0.749 | 1 | 1.06 | 0.837 | 0.707 | 0.841 | 0.939 | 0.844 | 0.668 | 1.01 | 1.1 | 1.25 | 0.995 | 0.994 | 0.906 | 0.972 | 0.864 | 0.811 | 0.781 |
| EPLC-272H | 0.301 | – | 0.402 | 0.344 | 0.286 | 0.98 | – | 1.15 | 1.06 | 1.06 | 0.779 | – | 0.97 | 1.17 | 0.835 | 0.261 | – | – | 0.328 | 0.336 |
| NCI-H2342 | – | – | – | – | – | – | – | – | – | – | – | – | – | – | – | 0.688 | 0.665 | 0.834 | 0.738 | – |
| ABC-1 | 0.685 | – | 0.669 | 0.914 | 0.679 | 0.311 | – | 0.282 | 0.235 | 0.348 | 1.25 | 0.727 | 1.31 | 0.312 | 1.11 | – | – | – | – | – |
| LOU-NH91 | 0.51 | 0.546 | 0.49 | 0.537 | 0.498 | 0.557 | 0.517 | 0.51 | 0.423 | 0.479 | 0.793 | 0.775 | 0.792 | 0.765 | 0.766 | 0.361 | 0.385 | 0.381 | 0.405 | 0.395 |
| SW 900 | – | – | – | – | – | – | – | – | – | – | – | – | – | – | – | 0.465 | 0.393 | 0.418 | 0.47 | 0.425 |
| NCI-H838 | 0.447 | 0.55 | 0.519 | 0.465 | 0.499 | 1.04 | 0.823 | 0.947 | 1 | 0.886 | – | – | – | – | – | 0.249 | 0.26 | 0.251 | 0.253 | 0.247 |
| SK-LU-1 | 0.738 | 0.682 | 0.633 | – | 0.611 | 1.59 | 1.22 | 1.31 | 1.1 | 1.26 | 1.08 | 1.1 | 1.11 | – | 0.82 | 1.04 | 1.2 | 1.1 | 1.03 | 1.04 |
| HCC-827 | 0.817 | 0.942 | 1.1 | 0.926 | 0.952 | – | 1 | 1.04 | 1.02 | – | 0.206 | 0.162 | 0.211 | 0.179 | 0.191 | 0.283 | 0.285 | 0.249 | 0.267 | 0.255 |
